# Experimental data taken from the supplement of paper PMC11781733.
# Structures can show the parent of a compound that is named as a salt.
# How the values were obtained:
# Details in all cases: exposure time: 15 min to 3 h acute
# Dugesia japonica [1] = test: crawl-out incidence (% planarians); higher = higher incidence or increase relative to vehicle control
# Dugesia japonica [2] = test: total locomotor bursts minus vehicle (bursts difference vs vehicle); higher = higher incidence or increase relative to vehicle control
# How it was run: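 Fasted Dugesia japonica planarians were placed one per well in a sealed 48-well plate with 200 μL solution and exposed to half- or quarter-log concentration series, with 0.5% DMSO or water as vehicle. Testing took place 15 min–3 h after exposure, with technical triplicates totalling n = 24. Total locomotor bursts, an unstimulated behaviour, were scored by image-based object tracking, and the plate vehicle-control median was subtracted from each planarian's value without scaling. The reported value is the median normalised response, excluding worms that crawled out.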
# Dugesia japonica [3] = test: any abnormal body shape incidence (% planarians (vehicle-normalised)); higher = higher incidence or increase relative to vehicle control
# How it was run: (§1)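 A blinded researcher manually scored planarian body shapes (contraction, C-shape, corkscrew, hyperkinesis), leaving out any worm that crawled out of its well. The D. japonica worms had been fasted 5–7 days, kept one per well in 200 μL in sealed 48-well plates, and screened within 15 minutes–3 hours of exposure to at least 5 concentrations. Values give shape incidence ×100, normalised to vehicle controls in the same plate, with negatives set to 0.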
# Dugesia japonica [4] = test: noxious heat displacement strength vs vehicle (% change vs vehicle); higher = higher incidence or increase relative to vehicle control
# How it was run: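 Displacement strength under noxious heat was measured in the scrunching assay on intact, fasted Dugesia japonica, one per well of a 48-well plate in 200 μL. Worms were tested 15 min to 3 h after exposure in 0.5% DMSO or water vehicle, using automated object tracking. Eight worms per concentration per plate were run in technical triplicate (n = 24). Each worm was normalised to the plate's vehicle median, and the value is the median percent change; worms that crawled out were excluded.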
# Dugesia japonica [5] = test: resting fraction in dark vs vehicle (difference in fraction x100 vs vehicle); higher = higher incidence or increase relative to vehicle control
# How it was run: (§2)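 Automated tracking of intact, fasted Dugesia japonica, one worm per well of a 48-well plate in 200 μL, was used to measure the resting fraction in the dark or under blue light. Testing took place 15 min to 3 h after exposure in 0.5% DMSO or water vehicle. Each plate held eight worms per concentration, run in technical triplicate. For each worm, the plate's vehicle median was subtracted and the difference multiplied by 100; the median of these values is reported, with worms that crawled out excluded.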
# Dugesia japonica [6] = test: loss of heat-induced scrunching incidence (% planarians (vehicle-normalised)); higher = higher incidence or increase relative to vehicle control
# How it was run: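 D. japonica planarians (fasted 5–7 days), one per well in 200 μL in sealed 48-well plates, were exposed to at least 5 concentrations (n = 24 per concentration, technical triplicates). They were tested within 15 minutes–3 hours for scrunching in response to a noxious heat stimulus; worms that crawled out were excluded. The value is the incidence ×100 of worms without scrunching, normalised to in-plate vehicle controls, with negatives set to 0.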
# Dugesia japonica [7] = test: speed in dark vs vehicle (% change vs vehicle); higher = higher incidence or increase relative to vehicle control
# How it was run: (§3)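 Automated tracking recorded crawling speed of intact, fasted Dugesia japonica in the dark or under blue light, and values are reported as the median percent change relative to the plate's vehicle median. Worms sat singly in wells of a 48-well plate in 200 μL and were tested 15 min to 3 h after exposure in 0.5% DMSO or water vehicle. Worms that crawled out were left out, with eight per concentration per plate in technical triplicate (n = 24).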
# Dugesia japonica [8] = test: loss of phototaxis incidence (% planarians (vehicle-normalised)); higher = higher incidence or increase relative to vehicle control
# How it was run: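 Automated object tracking was used to score intact, fasted Dugesia japonica for loss of phototaxis as a yes/no outcome. Worms sat one per well in 200 μL on 48-well plates and were tested 15 min to 3 h after exposure in 0.5% DMSO or water vehicle. The incidence rate ×100 was normalised to in-plate vehicle controls, negatives were set to 0, and worms that crawled out were left out.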
# Dugesia japonica [9] = test: resting fraction in blue light vs vehicle (difference in fraction x100 vs vehicle); higher = higher incidence or increase relative to vehicle control
# How it was run: as §2
# Dugesia japonica [10] = test: speed second 30 s blue light vs vehicle (% change vs vehicle); higher = higher incidence or increase relative to vehicle control
# How it was run: as §3
# Dugesia japonica [11] = test: corkscrew incidence (% planarians (vehicle-normalised)); higher = higher incidence or increase relative to vehicle control
# How it was run: as §1
# Dugesia japonica [12] = test: hyperkinesis incidence (% planarians (vehicle-normalised)); higher = higher incidence or increase relative to vehicle control
# How it was run: as §1
# Dugesia japonica [13] = test: anxiety (time in outer well region) vs vehicle (% change vs vehicle); higher = higher incidence or increase relative to vehicle control
# How it was run: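 D. japonica planarians (fasted 5–7 days), one per well in 200 μL in sealed 48-well plates, were exposed to at least 5 concentrations (n = 24 per concentration, technical triplicates) and screened within 15 minutes–3 hours. Time spent in the outer portion of the well was measured by object tracking in MATLAB or Python; worms that crawled out were excluded. Each worm's response was divided by, or reduced by, the plate vehicle median and multiplied by 100. The value is the median.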
# Dugesia japonica [14] = test: contracted body shape incidence (% planarians (vehicle-normalised)); higher = higher incidence or increase relative to vehicle control
# How it was run: as §1
# Dugesia japonica [15] = test: speed first 30 s blue light vs vehicle (% change vs vehicle); higher = higher incidence or increase relative to vehicle control
# How it was run: as §3
# Dugesia japonica [16] = test: pharynx extrusion incidence (% planarians (vehicle-normalised)); higher = higher incidence or increase relative to vehicle control
# How it was run: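 Blind manual scoring of pharynx extrusion, treated as a body-shape category, was done on intact, fasted Dugesia japonica. Worms sat singly in 200 μL per well of a 48-well plate, in water or 0.5% DMSO vehicle, and were tested between 15 min and 3 h after exposure. Eight worms per concentration per plate were run in technical triplicate (n = 24), and any that crawled out were excluded. The incidence was normalised to in-plate vehicle controls, with negatives set to 0.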
# Dugesia japonica [17] = test: C-shape incidence (% planarians (vehicle-normalised)); higher = higher incidence or increase relative to vehicle control
# How it was run: as §1
# Dugesia japonica [18] = test: stickiness incidence (% planarians (vehicle-normalised)); higher = higher incidence or increase relative to vehicle control
# How it was run: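 Fasted Dugesia japonica planarians, one per well of a sealed 48-well plate in 200 μL solution, were tested 15 min–3 h after exposure to half- or quarter-log concentration series. The vehicle was 0.5% DMSO or water. Stickiness was scored as a binary endpoint in the Stickiness assay, pooling technical triplicates (n = 24). Incidence was normalised to in-plate vehicle incidence, with negatives set to 0, and multiplied by 100. Crawled-out worms were excluded.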
SMILES,crawl-out incidence (Dugesia japonica [1]),total locomotor bursts minus vehicle (Dugesia japonica [2]),any abnormal body shape incidence (Dugesia japonica [3]),noxious heat displacement strength (Dugesia japonica [4]),resting fraction in dark (Dugesia japonica [5]),loss of heat-induced scrunching incidence (Dugesia japonica [6]),speed in dark (Dugesia japonica [7]),loss of phototaxis incidence (Dugesia japonica [8]),resting fraction in blue light (Dugesia japonica [9]),speed second 30 s blue light (Dugesia japonica [10]),corkscrew incidence (Dugesia japonica [11]),hyperkinesis incidence (Dugesia japonica [12]),anxiety (Dugesia japonica [13]),contracted body shape incidence (Dugesia japonica [14]),speed first 30 s blue light (Dugesia japonica [15]),pharynx extrusion incidence (Dugesia japonica [16]),C-shape incidence (Dugesia japonica [17]),stickiness incidence (Dugesia japonica [18])
CN1CC(=O)N=C1NC(=O)Nc1cccc(Cl)c1 [fenobam] (562 µM),0,2.75,0,-39.8,0.55,≤ 0,-21.3,≤ 0,1.05,-18.3,0,0,-14.4,0,-24.4,0,0,≤ 0
CN1C(=O)CN=C(c2ccccc2)c2cc(Cl)ccc21 [diazepam] (100 µM),0,55,100,-45.6,48.6,37.5,-72.2,29.2,50.2,-87.6,20.8,16.7,-36.9,12.5,-84.2,37.5,62.5,≤ 0
CN1CCN(CCCN2c3ccccc3Sc3ccc(Cl)cc32)CC1 [prochloroperazine] (3.16 µM),4.17,14.8,16.7,-46.2,15.2,45.8,-37.4,17.4,-3.15,-55.6,0,12.5,19,4.17,-37.9,0,0,4.17
[Cl-].[Na+] [sodium chloride] (3470 µM),4.17,0.5,0,-5.24,2.94,12.5,-7.38,≤ 0,-8.67,-2.5,0,0,-4.03,0,18.8,0,0,≤ 0
O=C(CCCN1CCC(O)(c2ccc(Cl)cc2)CC1)c1ccc(F)cc1 [haloperidol] (31.6 µM),16.7,15.5,63.2,-24,35.2,5,-59.3,15,16.3,-62.8,52.6,21.1,-7.34,10.5,-68,0,0,≤ 0
Cc1ncc2n1-c1ccc(Cl)cc1C(c1ccccc1F)=NC2 [midazolam] (31.6 µM),0,-0.5,20.8,-27.4,-0.404,8.33,8.87,≤ 0,-0.5,23.1,0,20.8,3.09,0,-1.82,0,0,≤ 0
Cc1cc2c(s1)Nc1ccccc1N=C2N1CCN(C)CC1 [olanzapine] (100 µM),41.7,-2.75,77.3,-50.1,79.9,68.2,-67.8,7.14,76,-91.1,18.2,45.5,18.3,27.3,-93.9,0,13.6,27.3
CN(C)CCCN1c2ccccc2CCc2ccccc21 [imipramine] (31.6 µM),0,15.2,45.8,-21.9,6.51,≤ 0,-64,20.8,6.1,-64.4,0,33.3,-4.58,12.5,-68.6,4.17,0,34.8
CN(C)CCCN1c2ccccc2CCc2ccccc21 [imipramine] (3.16 µM),0,11,0,-7.92,12.6,≤ 0,-44.7,≤ 0,6.5,-43.6,0,0,3.55,0,-51.6,0,0,≤ 0
CN1C(=O)CN=C(c2ccccc2)c2cc(Cl)ccc21 [diazepam] (3.16 µM),0,-3,0,-6.66,-5.99,29.2,16.7,41.7,-0.17,-4.64,0,0,-3.35,0,21.1,0,0,≤ 0
CNCCC(Oc1ccc(C(F)(F)F)cc1)c1ccccc1 (stereo unspecified) [fluoxetine hydrochloride] (3.16 µM),0,-7.5,0,-9.15,-6.73,16.7,-5.68,≤ 0,-1.89,-5.1,0,0,8.3,0,-11.9,0,0,≤ 0
O=C(CCCN1CC=C(n2c(=O)[nH]c3ccccc32)CC1)c1ccc(F)cc1 [droperidol] (100 µM),4.17,30,100,-26.6,74.8,73.9,-79.8,60.9,93.1,-96.2,0,0,-37,100,-94.2,0,4.35,13
CN1C(=O)CN=C(c2ccccc2)c2cc(Cl)ccc21 [diazepam] (31.6 µM),0,6.5,41.7,-21.6,56.8,16.7,-43.7,8.33,17.2,-63,4.17,8.33,-8.02,8.33,-43.1,25,25,16.7
CN1CCN(C2=Nc3cc(Cl)ccc3Nc3ccccc32)CC1 [clozapine] (3.16 µM),0,26.8,20.8,-40.6,74.7,33.3,-74,16.7,69.7,-87.9,4.17,20.8,-27.9,8.33,-90.3,0,0,20.8
CN(C)CCCC1(c2ccc(F)cc2)OCc2cc(C#N)ccc21 (stereo unspecified) [citalopram hydrobromide] (100 µM),0,1.5,8.33,-22.5,1.35,25,-4.27,≤ 0,0,-0.52,0,8.33,15.3,0,-6.21,0,0,8.33
CN(C)CCC[C@@]1(c2ccc(F)cc2)OCc2cc(C#N)ccc21 [escitalopram] (31.6 µM),0,-1.25,0,-31.5,-4.32,37.5,-4.33,4.17,0,4.85,0,0,3.28,4.17,12.5,0,0,8.33
CN1CCN(CCCN2c3ccccc3Sc3ccc(Cl)cc32)CC1 [prochloroperazine] (10 µM),25,12.5,37.5,-55.5,38.3,66.7,-74.9,50,52.9,-85.8,0,25,21.9,4.17,-81.4,0,12.5,4.17
